Laboratory results published in patent EP4678638A1, “NEW E3 UBIQUITIN LIGASE LIGAND, PROTEIN DEGRADATION AGENT AND USE THEREOF” (priority 2023, dated 2024).
Read-outs that look alike come from different tables or passages of the source.

Tests used:
H2228 = assay: CCK-8 proliferation, NCI-H2228 (H2228); assay type: cell-based; conditions: Homo sapiens, NCI-H2228
How it was run: (§1)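 CCK-8 viability readout; IC50 from growth-inhibition curve fitting. Cells plated, dosed 24h later with a 10-point series, top 10µM, 5-fold steps. Culture at 37°C, 5% CO2.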

H1975 = assay: CCK-8 proliferation, NCI-H1975 (H1975); assay type: cell-based, Human; conditions: Homo sapiens, NCI-H1975
How it was run: as §1

MCF7 = assay: CCK-8 proliferation, MCF7 (MCF-7); assay type: cell-based; conditions: Homo sapiens, MCF7; Table B6, compounds designed based on the ALK inhibitors; MCF-7 cells; read-out: Inhibitory activity (IC50, nM) on tumor cell proliferation, MCF-7
How it was run: as §1

SR = assay: CCK-8 proliferation, SR; assay type: cell-based, Human; conditions: Homo sapiens
How it was run: as §1

MM.1S = assay: CCK-8 proliferation, MM.1S; assay type: cell-based; conditions: Homo sapiens, MM1.S; Table B6, compounds designed based on the ALK inhibitors; MM.1S cells; read-out: Inhibitory activity (IC50, nM) on tumor cell proliferation, MM.1S
How it was run: as §1

MDA-MB-231 = assay: CCK-8 proliferation, MDA-MB-231; assay type: cell-based; conditions: Homo sapiens; Table B6, compounds designed based on the ALK inhibitors; MDA-MB-231 cells; read-out: Inhibitory activity (IC50, nM) on tumor cell proliferation, MDA-MB-231
Description: (§2) The tumor cells used herein were cultured in a cell culture medium listed in table A1 at 37°C in an incubator with 5% CO2. Prior to experimentation, all cell lines used were correctly identified by STR profiling, and tested negative for mycoplasma contamination using a mycoplasma detection kit through routine screenings. Table A1. Tumor cells and cell culture medium used in the present disclosure
(§3) IC50 values of the compounds of the present disclosure (including the compounds in Table 1, and compounds of examples) were measured using the Meilun Cell Counting Kit-8 kit from Dalian Meilun Biotech Co., Ltd. Assay details are as follows: tumor cells were seeded in a 96-well plate at a density listed in Table A2. After 24h, 100 µL of the inoculated cells were treated with 0.5µL of the compounds of the present disclosure (including the compounds in Tables 1 and 2, and compounds of examples) at 10 different successively decreasing concentrations (starting at the highest concentration of 10µM; 5-fold serial dilutions). After the cells were treated with the compounds of the present disclosure for a period of time, the cell viability detection reagent was added to the culture medium for cell viability assessment according to the instructions provided with the CCK-8 kit. […] The growth inhibition of the compounds of the present disclosure on cells was plotted by Prism Graphpad software, and the IC50 values of the compounds of the present disclosure were calculated therefrom. […] Seeding protocol and treatment time for tumor cells

SW620 = assay: CCK-8 proliferation, SW620; assay type: cell-based; conditions: Homo sapiens, SW-620; CCK-8; 96 hours; read-out: Inhibitory activity (IC50) on tumor cell proliferation, SW620
Description: as §2, §3

MV-4-11 = assay: CCK-8 proliferation, MV-4-11; assay type: cell-based, Human; conditions: Homo sapiens, MV4-11; CCK-8; 72 or 96 hours; read-out: Inhibitory activity (IC50) on tumor cell proliferation, MV-4-11
Description: as §2, §3

CCRF-CEM = assay: CCK-8 proliferation, CCRF-CEM; assay type: cell-based, Human; conditions: Homo sapiens, CCRF-CEM; CCK-8; 96 hours; read-out: Inhibitory activity (IC50) on tumor cell proliferation, CCRF-CEM
How it was run: as §1

[1] = target: T1, human Cereblon WT GST-tagged protein (Homo sapiens, UniProt Q96SW2); assay: CRBN binding, HTRF (CEREBLON BINDING kit); conditions: Table II-2, CRBN binding screening, HTRF; for inhibition at 0.5 µM: read-out: Inhibition rate (%) at 0.5µM; for inhibition at 2 µM: read-out: Inhibition rate (%) at 2 µM
T1 construct: purchased CISBIO 64BDCRBNPEH
T1 sequence (Q96SW2 whole entry): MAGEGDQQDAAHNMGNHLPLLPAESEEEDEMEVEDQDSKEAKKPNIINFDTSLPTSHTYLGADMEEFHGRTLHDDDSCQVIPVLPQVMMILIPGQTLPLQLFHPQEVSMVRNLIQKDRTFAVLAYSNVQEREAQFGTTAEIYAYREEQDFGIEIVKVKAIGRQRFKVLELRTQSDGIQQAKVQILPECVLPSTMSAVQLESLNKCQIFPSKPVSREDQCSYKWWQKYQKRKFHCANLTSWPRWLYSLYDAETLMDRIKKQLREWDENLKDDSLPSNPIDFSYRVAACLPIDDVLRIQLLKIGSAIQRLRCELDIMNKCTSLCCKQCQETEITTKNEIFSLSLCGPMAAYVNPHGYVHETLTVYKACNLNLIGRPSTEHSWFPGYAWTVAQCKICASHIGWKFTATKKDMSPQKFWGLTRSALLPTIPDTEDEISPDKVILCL
How it was run: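 Competitive HTRF: GST-tagged human WT Cereblon mixed with compound, Thalidomide-Re tracer and GST Eu antibody, incubated 3 h at room temperature. Signals read at 620 and 665 nm.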

FAK = target: T2, FAK (Homo sapiens, UniProt Q05397); assay: Western blot degradation of FAK; assay type: cell-based; conditions: Table D7
T2 construct: evaluate the effects of the compounds of the present disclosure on the expression of target proteins in cells; endogenous in cells
T2 sequence (Q05397 whole entry, species assumed): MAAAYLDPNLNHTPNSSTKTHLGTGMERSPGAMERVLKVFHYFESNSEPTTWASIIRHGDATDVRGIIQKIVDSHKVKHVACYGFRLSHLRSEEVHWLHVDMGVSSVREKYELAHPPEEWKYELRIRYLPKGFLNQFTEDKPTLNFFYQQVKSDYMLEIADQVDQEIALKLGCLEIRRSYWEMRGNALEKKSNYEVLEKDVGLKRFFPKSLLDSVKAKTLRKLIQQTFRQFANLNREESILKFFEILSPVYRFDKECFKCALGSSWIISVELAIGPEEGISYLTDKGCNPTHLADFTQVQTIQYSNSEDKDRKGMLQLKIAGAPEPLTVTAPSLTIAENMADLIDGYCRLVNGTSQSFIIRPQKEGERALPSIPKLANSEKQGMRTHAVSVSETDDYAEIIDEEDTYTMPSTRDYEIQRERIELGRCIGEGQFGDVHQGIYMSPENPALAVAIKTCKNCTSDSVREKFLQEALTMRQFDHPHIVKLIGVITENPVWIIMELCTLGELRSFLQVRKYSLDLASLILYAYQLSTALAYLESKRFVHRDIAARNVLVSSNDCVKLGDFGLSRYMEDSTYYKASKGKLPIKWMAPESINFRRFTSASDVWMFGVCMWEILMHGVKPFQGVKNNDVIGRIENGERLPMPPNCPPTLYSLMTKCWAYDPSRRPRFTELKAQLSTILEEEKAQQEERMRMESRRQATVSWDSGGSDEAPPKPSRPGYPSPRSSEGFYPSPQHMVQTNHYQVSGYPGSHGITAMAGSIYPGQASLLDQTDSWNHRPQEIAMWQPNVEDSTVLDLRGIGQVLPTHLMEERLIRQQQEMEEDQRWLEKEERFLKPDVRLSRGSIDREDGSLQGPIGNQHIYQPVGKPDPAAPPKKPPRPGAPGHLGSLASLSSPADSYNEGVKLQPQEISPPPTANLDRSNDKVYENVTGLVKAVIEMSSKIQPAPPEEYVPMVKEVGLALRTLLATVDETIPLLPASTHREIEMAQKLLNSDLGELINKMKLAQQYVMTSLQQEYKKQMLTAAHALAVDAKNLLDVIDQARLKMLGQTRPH
Description: Conventional Western blot assay was performed to evaluate the effects of the compounds of the present disclosure on the expression of target proteins in cells.
(1) Cell Seeding and Protein Harvesting: The selected cells were processed according to the cell seeding procedure and protein harvesting procedure in Table III-2. Table III-2 Cell Seeding and Protein Harvesting Procedures
(2) To the collected supernatant, 5X SDS sample loading buffer was added, followed by denaturation at 95°C for 5 minutes. The denatured samples were then separated by SDS-PAGE electrophoresis on a polyacrylamide gel. Proteins were transferred to a nitrocellulose membrane (0.45 µm NC membrane), blocked with blocking buffer at room temperature for 1 hour, and subjected to antibody incubation and development procedures according to the antibody manufacturer's instructions (Cell Signaling Technology).
Half-Maximal Degradation Concentration value (the drug concentration required for degrading proteins by 50%, abbreviated as DC50) reads method: comparing the grayscale values of Western blot bands from drug-treated samples with those from blank DMSO-treated controls, and identifying the drug concentration range at which the grayscale value is half that of the DMSO-treated control bands.
DC50 values can be calculated using ImageJ software to measure grayscale values of Western blot bands from drug-treated samples. The concentration-response curve is fitted to estimate the drug concentration corresponding to half the grayscale value.
Target protein remaining (%) refers to the percentage of target protein remaining in hPBMC cells after treatment with protein degrader compounds.
Calculation method for target protein remaining (%): Use ImageJ software to measure grayscale values of Western blot bands from drug (protein degrader)-treated samples. The grayscale value of drug-treated bands is divided by that of internal control protein bands, and the resulting quotient is normalized to obtain the relative percentage of remaining target protein after protein degrader treatment.
Target protein degradation rate (%) = 100% - target protein remaining (%).

PC-9 = assay: CCK-8 proliferation, PC-9; assay type: cell-based, Human; conditions: Homo sapiens, PC-9; CCK-8; 96 hours; read-out: Inhibitory activity (IC50) on tumor cell proliferation, PC-9
Description: as §2, §3

[2] = Table B6, compounds designed based on the ALK inhibitors, H2228 cells, read-out: Inhibitory activity (IC50, nM) on tumor cell proliferation, H2228
[3] = Table B6, compounds designed based on the ALK inhibitors, H1975 cells, read-out: Inhibitory activity (IC50, nM) on tumor cell proliferation, H1975
[4] = Table B6, compounds designed based on the ALK inhibitors, SR cells, read-out: Inhibitory activity (IC50, nM) on tumor cell proliferation, SR
[5] = SR, CCK-8, 72 hours, read-out: Inhibitory activity (IC50) on tumor cell proliferation, SR
[6] = CCK-8, 96 hours, read-out: Inhibitory activity (IC50) on tumor cell proliferation, H1975

Row | Structure (SMILES) | IC50 (H2228; [2]) | IC50 (H1975; [3]) | IC50 (MCF7) | IC50 (SR; [4]) | IC50 (MM.1S) | IC50 (MDA-MB-231) | IC50 (SW620) | other results
1 | COc1cc(N2CCC(N3CCN(Cc4ccc(N5CCC(=O)NC5=O)cn4)CC3)CC2)ccc1Nc1ncc(Cl)c(Nc2ccccc2P(C)(C)=O)n1 [GT-07606, 1-(6-((4-(1-(4-((5-chloro-4-((2-(dimethylphosphoryl)phenyl)amino)pyrimidin-2-yl)amino)-3-methoxyphenyl)piperidin-4-yl)piperazin-1-yl)methyl)pyridin-3-yl)dihydropyrimidine-2,4(1H,3H)-dione] | 50 to 100 nM | 100 to 500 nM | 100 to 500 nM | 1 to 10 nM | 500 to 1000 nM | 100 to 500 nM |  | 
2 | CCc1cc2c(cc1N1CCC(N3CCN(Cc4cncc(N5CCC(=O)NC5=O)c4)CC3)CC1)C(C)(C)c1[nH]c3cc(C#N)ccc3c1C2=O [GT-07702, 8-(4-(4-((5-(2,4-dioxotetrahydropyrimidin-1(2H)-yl)pyridin-3-yl)methyl)piperazin-1-yl)piperidin-1-yl)-9-ethyl-6,6-dimethyl-11-oxo-6,11-dihydro-5H-benzo[b]carbazole-3-carbonitrile] | 100 to 500 nM | 500 to 1000 nM | 500 to 1000 nM | 1 to 10 nM | 500 to 1000 nM | 500 to 1000 nM |  | 
3 | CNC(=O)c1ccccc1Nc1cc(Nc2ccc(N3CCN(Cc4ccc(C5CCC(=O)NC5=O)cc4)CC3)cc2OC)ncc1C(F)(F)F (stereo not shown) [GT-03715, 2-((2-((4-(4-(4-(2,6-dioxopiperidin-3-yl)benzyl)piperazin-1-yl)-2-methoxyphenyl)amino)-5-(trifluoromethyl)pyridin-4-yl)amino)-N-methylbenzamide] |  |  |  |  |  |  | 0.5 to 1 µM | IC50 (MV-4-11): 0.1 to 0.5 µM; IC50 (SR; [5]): 100 to 500 nM; IC50 (CCRF-CEM): 0.5 to 1 µM; inhibition at 0.5 µM [1]: 10 to 20%; inhibition at 2 µM [1]: 60 to 80%; Degradation of substrate protein FAK (substrate protein remaining %) (FAK): A (A is defined as 0% ≤ substrate protein remaining % ≤ 80%)
4 | CCc1cc2c(cc1N1CCC(N3CCN(Cc4cc(C5CCC(=O)NC5=O)cnc4F)CC3)CC1)C(C)(C)c1[nH]c3cc(C#N)ccc3c1C2=O (stereo not shown) [GT-07703, 8-(4-(4-((5-(2,6-dioxopiperidin-3-yl)-2-fluoropyridin-3-yl)methyl)piperazin-1-yl)piperidin-1-yl)-9-ethyl-6,6-dimethyl-11-oxo-6,11-dihydro-5H-benzo[b]carbazole-3-carbonitrile] | 50 to 100 nM |  | 500 to 1000 nM | 1 to 10 nM |  | 500 to 1000 nM |  | 
5 | COc1cc(N2CCC(N3CCN(Cc4ccc(N5CCC(=O)NC5=O)nc4)CC3)CC2)ccc1Nc1ncc(Cl)c(Nc2ccccc2P(C)(C)=O)n1 [GT-07607, 1-(5-((4-(1-(4-((5-chloro-4-((2-(dimethylphosphoryl)phenyl)amino)pyrimidin-2-yl)amino)-3-methoxyphenyl)piperidin-4-yl)piperazin-1-yl)methyl)pyridin-2-yl)dihydropyrimidine-2,4(1H,3H)-dione] | 10 to 50 nM | 100 to 500 nM | 100 to 500 nM | 1 to 10 nM |  | 100 to 500 nM |  | 
6 | CCc1cc2c(cc1N1CCC(N3CCOCC3)CC1)C(C)(C)c1[nH]c3cc(C#N)ccc3c1C2=O [alectinib, reference compound] | 5000 to 10000 nM | 1000 to 5000 nM | 5000 to 10000 nM | 10 to 50 nM | 1000 to 5000 nM | 1000 to 5000 nM |  | 
7 | CCc1cc2c(cc1N1CCC(N3CCN(Cc4ccc(N5CCC(=O)NC5=O)c(F)c4)CC3)CC1)C(C)(C)c1[nH]c3cc(C#N)ccc3c1C2=O [GT-07308, 8-(4-(4-(4-(2,4-dioxotetrahydropyrimidin-1(2H)-yl)-3-fluorobenzyl)piperazin-1-yl)piperidin-1-yl)-9-ethyl-6,6-dimethyl-11-oxo-6,11-dihydro-5H-benzo[b]carbazole-3-carbonitrile] | 10 to 50 nM |  | 500 to 1000 nM | 10 to 50 nM |  | 500 to 1000 nM |  | 
8 | NC(=O)c1ncc(N2CCCCC2)nc1Nc1ccc(C2CCN(Cc3ccc(N4CCC(=O)NC4=O)cc3F)CC2)cc1 [GT-04790, 3-((4-(1-(4-(2,4-dioxotetrahydropyrimidin-1(2H)-yl)-2-fluorobenzyl)piperidin-4-yl)phenyl)amino)-5-(piperidin-1-yl)pyrazine-2-carboxamide] |  |  |  |  |  |  | 0.5 to 1 µM | IC50 (H2228; CCK-8, 96 hours, read-out: Inhibitory activity (IC50) on tumor cell proliferation, H2228): 100 to 500 nM; IC50 (PC-9): 0.1 to 0.5 µM; IC50 (H1975; [6]): 500 to 1000 nM
9 | COc1cc(N2CCN(Cc3ccc(C4CCC(=O)NC4=O)cn3)CC2)ccc1Nc1ncc(Cl)c(Nc2ccccc2P(C)(C)=O)n1 (stereo not shown) [GT-07713, 3-(6-((4-(4-((5-chloro-4-((2-(dimethylphosphoryl)phenyl)amino)pyrimidin-2-yl)amino)-3-methoxyphenyl)piperazin-1-yl)methyl)pyridin-3-yl)piperidine-2,6-dione] | 100 to 500 nM |  |  | 10 to 50 nM |  | 500 to 1000 nM |  | 
10 | CNC(=O)c1ccccc1Nc1cc(Nc2ccc(N3CCN(Cc4ccc(C5CCC(=O)NC5=O)c(F)c4)CC3)cc2OC)ncc1C(F)(F)F (stereo not shown) [GT-03717, 2-((2-((4-(4-(4-(2,6-dioxopiperidin-3-yl)-3-fluorobenzyl)piperazin-1-yl)-2-methoxyphenyl)amino)-5-(trifluoromethyl)pyridin-4-yl)amino)-N-methylbenzamide] |  |  |  |  |  |  | 0.5 to 1 µM | IC50 (H1975; [6]): 500 to 1000 nM; IC50 (MV-4-11): 0.1 to 0.5 µM; IC50 (SR; [5]): 100 to 500 nM; inhibition at 0.5 µM [1]: 30 to 40%; inhibition at 2 µM [1]: 40 to 53%; Degradation of substrate protein FAK (substrate protein remaining %) (FAK): A (A is defined as 0% ≤ substrate protein remaining % ≤ 80%)
